Data: US6495589B2, “Somatostatin antagonists and agonists that act at the SST subtype 2 receptor” (Pfizer Inc., priority 2000, dated 2002)
Ends that are not written are not given here.

Tested on: GH4C1 cells
Assay: Rat pituitary assay for somatostatin receptor antagonists (cAMP content of GH4C1 cells)
Assay type: cell-based
Settings: 100 nM VIP as stimulus
From the text: This assay is designed to quantitate the activity of antagonists of somatostatin that interact directly at the somatostatin receptor. The assay facilitates discovery of agents which increase growth hormone secretion by modulating the inhibitory effects of somatostatin. As aforementioned, somatostatin (also abbreviated SRIF) inhibits GH secretion in the anterior pituitary by binding to a high affinity membrane-bound (and G-protein coupled) receptor which is coupled negatively to adenyl cyclase, thereby reducing intracellular levels of cAMP that would otherwise facilitate, for example, secretion/release of GH from cytoplasmic granules. […] The screen is designed to quantitate the ability of test agents to reverse SRIF's inhibition of the elevated intracellular cAMP levels produced by VIP.
In particular, cyclic AMP (cAMP) content of the pituitary cell line GH4C1 was used to differentiate somatostatin agonists from antagonists. […] This afforded a convenient way to conduct a homogenous immunoradiometric assay of cAMP content in cells lysed in situ, following incubation of the cells with test compound. cAMP content in the GH4C1 cells was determined according to the manufacturer's instructions, by comparison with standards at concentrations from 10 to 1,000 nM cAMP. […]
IC50 values are determined by polynomial regression and analzyed using a MACRO program. […]

Substance: VIP: Vasoactive intestinal peptide (Sigma V3628), endogenous peptide that stimulates GH secretion and activates adenylate cyclase (HSDAVFTDNYTRLRKQMAVKKYLNSILN-NH2; ends and bridges not checked; UniProt P01282 125-152, looked up)
- cAMP content of the GH4C1 cells: increased
